Assay results taken from paper PMC8688152, “Distinct classes of potassium channels fused to GPCRs as electrical signaling biosensors” (Cell Reports Methods, 2021).

How the values were obtained:
[1] = target: T1, M2_Kcv-09-03 (UniProt P08172+Q84568); experiment: TEVC recording of M2_Kcv-09-03 ICCR expressed in Xenopus oocytes; assay type: cell-based, human (M2), Paramecium bursaria chlorella virus 1 (Kcv)
T1 construct: expressed in transfected cells; host or cells: Xenopus oocytes (mRNA injection)
T1 sequence (P08172+Q84568 with tags, fused parts or gaps): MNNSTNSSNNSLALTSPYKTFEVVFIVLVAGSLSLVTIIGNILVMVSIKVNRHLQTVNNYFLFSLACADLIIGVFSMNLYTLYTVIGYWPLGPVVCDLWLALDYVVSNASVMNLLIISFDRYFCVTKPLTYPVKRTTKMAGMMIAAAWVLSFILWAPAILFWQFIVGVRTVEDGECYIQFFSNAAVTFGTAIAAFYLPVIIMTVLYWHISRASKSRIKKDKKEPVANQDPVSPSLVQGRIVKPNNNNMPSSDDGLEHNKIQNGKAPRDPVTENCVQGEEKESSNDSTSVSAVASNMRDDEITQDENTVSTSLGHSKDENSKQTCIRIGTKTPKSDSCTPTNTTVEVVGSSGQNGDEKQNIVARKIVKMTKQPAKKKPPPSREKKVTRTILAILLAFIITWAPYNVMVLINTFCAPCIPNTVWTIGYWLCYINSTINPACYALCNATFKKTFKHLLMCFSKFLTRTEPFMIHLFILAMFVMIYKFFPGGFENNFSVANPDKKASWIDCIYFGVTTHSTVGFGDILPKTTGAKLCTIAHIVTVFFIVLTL
Method: (§1) Microelectrodes were filled with […]. […] The membrane voltage was clamped to −50 mV.

[2] = test system: M2[T4L]_T-00-43; experiment: TEVC recording of G protein-uncoupled M2[T4L]_T-00-43; assay type: cell-based, human (M2), mouse (TREK-1); details: 5 μM ACh
Method: as §1

[3] = test system: Kir3.4T (Kir3.4(S143T)) co-expressed with M2_T constructs; experiment: G protein activation assay: Kir3.4T co-expressed with M2_T ICCRs (TEVC); assay type: cell-based, Xenopus oocytes; details: 5 μM ACh
Method: as §1

[4] = target: T2, M2_T-00-43 S300A S333A (UniProt P08172+P97438, S315A/S348A); experiment: TEVC recording of phosphorylation-deficient M2_T-00-43 S300A S333A; assay type: cell-based, human (M2), mouse (TREK-1); details: ACh 5 μM
T2 construct: full-length (−00) or M2 deleted of its last nine residues (−09) in the indicated ICCRs; expressed in transfected cells; host or cells: Xenopus oocytes (mRNA injection); gene synthesized by GeneCust
Method: as §1

T2 sequence (P08172+P97438 fused P97438:S300A/P97438:S333A): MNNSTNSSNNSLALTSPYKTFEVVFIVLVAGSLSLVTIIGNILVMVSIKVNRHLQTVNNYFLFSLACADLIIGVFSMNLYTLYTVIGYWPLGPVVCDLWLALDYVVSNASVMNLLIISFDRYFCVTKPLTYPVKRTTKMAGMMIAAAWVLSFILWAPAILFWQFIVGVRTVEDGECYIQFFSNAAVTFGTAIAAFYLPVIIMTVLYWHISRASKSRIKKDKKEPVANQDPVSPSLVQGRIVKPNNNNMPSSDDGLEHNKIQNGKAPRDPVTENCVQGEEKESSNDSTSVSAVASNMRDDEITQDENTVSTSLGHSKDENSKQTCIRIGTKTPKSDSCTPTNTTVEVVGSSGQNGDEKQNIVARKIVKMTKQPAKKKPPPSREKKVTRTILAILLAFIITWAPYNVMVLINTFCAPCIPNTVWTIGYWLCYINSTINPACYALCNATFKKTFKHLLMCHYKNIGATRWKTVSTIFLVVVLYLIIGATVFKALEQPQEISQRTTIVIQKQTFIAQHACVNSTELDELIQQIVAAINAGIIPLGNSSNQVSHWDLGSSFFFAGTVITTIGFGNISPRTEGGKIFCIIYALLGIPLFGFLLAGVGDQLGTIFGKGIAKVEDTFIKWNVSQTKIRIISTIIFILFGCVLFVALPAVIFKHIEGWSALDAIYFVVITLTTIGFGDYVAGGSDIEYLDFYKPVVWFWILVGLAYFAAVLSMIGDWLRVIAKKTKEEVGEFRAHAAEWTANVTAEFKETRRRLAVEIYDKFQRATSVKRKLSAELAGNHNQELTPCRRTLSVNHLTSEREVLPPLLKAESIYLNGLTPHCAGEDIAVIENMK

## CC(=O)OCC[N+](C)(C)C [ACh, acetylcholine]
[1]; concentration-effect curve, TEVC
  Hill coefficient (nH) on M2_Kcv-09-03: 0.37
[1]; read-out: inhibition: % of current change induced by ACh 5 μM on M2_Kcv-09-03, 5 μM, Xenopus oocytes, 91 mM K+, Vm = −50 mV, printed as inhibition, mean ± SEM
  inhibition at 5 µM: 53.4%
[2]
  activation of G protein-uncoupled M2[T4L]_T-00-43 by ACh: still activated by ACh with the same amplitude as WT
[3]
  G protein activation (Kir3.4T) by M2_T-09-40 and -09-43: still able to activate Gi/o proteins
[3]; no significant differences between the four constructs
  activation of Kir3.4T co-expressed with M2_T-00-37, −40, −43 and −46: clear activation
[4]
  activation of the S300A S333A double mutant of M2_T-00-43 by ACh: preserved activation
